{
  "source": "patent US9145412B2",
  "about": "“Selective HDAC1 and HDAC2 inhibitors” (Acetylon Pharmaceuticals, Inc., priority 2012, dated 2015)",
  "key": {"[1]": {"biological_target": "HDAC1 (Homo sapiens (Human), UniProt Q13547)", "sequence (Q13547 whole entry)": "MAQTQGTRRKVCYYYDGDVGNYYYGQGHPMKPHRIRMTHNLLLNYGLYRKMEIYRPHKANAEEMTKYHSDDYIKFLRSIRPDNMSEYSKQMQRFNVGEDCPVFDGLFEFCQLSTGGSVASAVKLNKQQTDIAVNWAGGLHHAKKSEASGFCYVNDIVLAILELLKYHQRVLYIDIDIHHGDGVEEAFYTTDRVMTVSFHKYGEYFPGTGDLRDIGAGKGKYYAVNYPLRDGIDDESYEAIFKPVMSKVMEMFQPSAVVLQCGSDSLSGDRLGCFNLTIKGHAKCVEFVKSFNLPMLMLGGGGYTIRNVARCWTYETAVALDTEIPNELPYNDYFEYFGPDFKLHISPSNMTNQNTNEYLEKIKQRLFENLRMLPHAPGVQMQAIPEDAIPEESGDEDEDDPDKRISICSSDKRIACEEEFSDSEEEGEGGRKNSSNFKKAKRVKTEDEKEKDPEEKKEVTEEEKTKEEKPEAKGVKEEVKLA", "experiment": "HDAC enzyme assay", "type": "biochemical", "conditions": "enzyme pre-incubated with compound for 24 hours", "experimental": "(§1) Compounds for testing were diluted in DMSO to 50 fold the final concentration and a ten point three fold dilution series was made. The compounds were diluted in assay buffer (50 mM HEPES, pH 7.4, 100 mM KCl, 0.001% Tween-20, 0.05% BSA, 20 μM tris(2-carboxyethyl)phosphine) to 6 fold their final concentration. The HDAC enzymes (purchased from BPS Biosciences) were diluted to 1.5 fold their final concentration in assay buffer and pre-incubated with the compounds for 24 hours prior to addition of the substrate.\n(§2) The substrate tripeptide substrate 3 (synthesized in house) for each enzyme was equal to the Km as determined by a substrate titration curve. The substrates were diluted in assay buffer at 6× their final concentration with 0.3 μM sequencing grade trypsin (Sigma). The substrate/trypsin mix was added to the enzyme/compound mix, the plate was shaken for 60 seconds and placed into a Spectramax M5 microtiter plate reader. The development of fluorescence was monitored for […] and the linear rate of the reaction was calculated. The IC50 was determined using Graph Pad Prism by a four parameter curve fit. The IC50 values obtained for the compounds of this invention are found in Table 1."}, "[2]": {"biological_target": "HDAC2 (Homo sapiens (Human), UniProt Q92769)", "sequence (Q92769 whole entry)": "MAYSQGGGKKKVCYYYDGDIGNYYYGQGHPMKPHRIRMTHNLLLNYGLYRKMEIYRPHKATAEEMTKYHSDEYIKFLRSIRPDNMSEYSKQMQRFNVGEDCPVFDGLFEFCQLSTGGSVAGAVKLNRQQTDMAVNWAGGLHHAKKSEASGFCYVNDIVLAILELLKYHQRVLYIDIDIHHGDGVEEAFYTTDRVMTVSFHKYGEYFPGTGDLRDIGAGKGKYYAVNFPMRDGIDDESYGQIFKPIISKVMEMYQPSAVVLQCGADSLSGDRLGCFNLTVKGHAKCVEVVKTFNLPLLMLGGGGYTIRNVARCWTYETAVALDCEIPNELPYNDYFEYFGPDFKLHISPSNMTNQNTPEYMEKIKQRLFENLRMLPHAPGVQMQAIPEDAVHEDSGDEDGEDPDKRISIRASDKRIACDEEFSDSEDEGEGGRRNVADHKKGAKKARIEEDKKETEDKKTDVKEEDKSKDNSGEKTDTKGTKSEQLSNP", "experiment": "HDAC enzyme assay", "type": "biochemical", "conditions": "enzyme pre-incubated with compound for 24 hours", "experimental": "as §1, §2"}, "[3]": {"biological_target": "HDAC3 (Homo sapiens (Human), UniProt O15379)", "sequence (O15379 whole entry)": "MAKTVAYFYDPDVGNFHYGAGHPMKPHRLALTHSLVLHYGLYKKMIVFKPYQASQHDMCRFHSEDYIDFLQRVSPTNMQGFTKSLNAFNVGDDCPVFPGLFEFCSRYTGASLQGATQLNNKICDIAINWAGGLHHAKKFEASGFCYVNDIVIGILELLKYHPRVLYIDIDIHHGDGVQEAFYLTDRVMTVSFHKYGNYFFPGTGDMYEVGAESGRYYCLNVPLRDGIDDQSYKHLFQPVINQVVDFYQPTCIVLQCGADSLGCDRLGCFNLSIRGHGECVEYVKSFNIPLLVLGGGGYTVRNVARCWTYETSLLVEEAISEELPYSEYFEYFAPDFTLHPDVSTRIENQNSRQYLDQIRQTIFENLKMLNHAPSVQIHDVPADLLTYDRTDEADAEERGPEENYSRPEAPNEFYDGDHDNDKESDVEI", "sequence (Q9Y618 395-489 partner)": "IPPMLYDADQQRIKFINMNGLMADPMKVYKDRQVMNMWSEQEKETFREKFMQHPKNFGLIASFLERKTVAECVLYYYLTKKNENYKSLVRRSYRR", "experiment": "HDAC enzyme assay", "type": "biochemical", "conditions": "enzyme pre-incubated with compound for 24 hours", "experimental": "as §1, §2"}, "[4]": {"tested_on": "human CD34+ bone marrow cells", "experiment": "Fetal globin (HbG) induction in cultured CD34+ cells undergoing erythroid differentiation", "type": "cell-based", "conditions": "for increase in the percentage of HbG relative to other beta-like globin transcripts: 1 μM, treatment of cells for 6 days", "experimental": "CD34+ cells isolated from human bone marrow were cultured in vitro using two distinct sets of culture conditions. Culture system 1 (CS1), described by Xu J et al. (Science 2011 Nov. 18; 334(6058):993-6), consists of a 7 day expansion phase in media that supports hematopoietic progenitor cells followed by a differentiation phase of 4 to 8 days in media that induces development of erythroid lineage cells. Culture system 2 (CS2), described by Bradner J E (Proc Natl Acad Sci USA. 2010 Jul. 13; 107(28):12617-22), consists of a 7 day expansion phase in media that supports differentiation of cells towards the erythroid lineage followed by a differentiation phase for 3 days where erythroid cell development continues. After 3 to 5 days in differentiation media CS1 cells are primarily early erythroblasts (EB), while CS2 cells are primarily late EB. mRNA levels were determine by quantitative real time PCR using primer/probe sets designed to adult major β-globin (β), adult minor β-globin (δ), fetal β-like globin (HbG, γ), and embryonic β-like globin (ε). Protein levels were determined by flow cytometry using fluorescent antibodies against fetal hemoglobin (HbF) or adult hemoglobin (HbA). […] Globin mRNA levels were determined in cells at day 0, 3, 5, and 8 of differentiation. […] Globin mRNA levels were determined at day 3 of differentiation. […] Hemoglobin protein levels within each cell were determined at day 5 of differentiation. […] After 2 days, media was exchanged and cells were differentiated for an additional 2 days in the absence of compound. Hemoglobin protein levels within each cell were determined at day 4 of differentiation.\n(§3) To investigate whether HDAC1 or HDAC2 was the preferred therapeutic target, two compounds were used."}, "[5]": {"tested_on": "human CD34+ bone marrow cells", "experiment": "Cell viability / cytotoxicity in cultured CD34+ cells", "type": "cell-based", "conditions": "1 μM, after 6 days of treatment", "text": "as §3"}, "[6]": {"tested_on": "human CD34+ bone marrow cells", "experiment": "Erythroid differentiation markers CD71 and glycophorinA", "type": "cell-based", "conditions": "1 μM, 6 days", "text": "as §3"}, "[7]": {"tested_on": "early erythroblasts (CD71+, GlyA−)", "experiment": "Gene expression profiling, Affymetrix PrimeView GeneChips", "type": "cell-based", "conditions": "n=3 vs vehicle", "text": "(§4) Significant enrichment in other gene sets involving targets linked to HbG regulation, including lysine-specific demethylase 1 (LSD1) (Shi L, Nature Medicine, 2012) were identified."}, "[8]": {"tested_on": "late erythroblasts (CD71+, GlyA+)", "experiment": "Gene expression profiling, Affymetrix PrimeView GeneChips", "type": "cell-based", "text": "as §4"}, "[9]": {"tested_on": "Bcl11A mRNA", "experiment": "GeneChip and quantitative real-time PCR time course", "type": "cell-based", "text": "(§5) ChIP-seq data, both by itself and in combination with gene expression data, will provide further insight into the mechanism through which HDAC1/2 regulates HbF synthesis."}, "[10]": {"tested_on": "Gata2 mRNA", "experiment": "GeneChip and quantitative real-time PCR time course", "type": "cell-based", "text": "as §5"}, "[11]": {"tested_on": "Klf2 mRNA", "experiment": "GeneChip and quantitative real-time PCR time course", "type": "cell-based", "text": "as §5"}, "[12]": {"tested_on": "Sox6 mRNA", "experiment": "GeneChip and quantitative real-time PCR time course", "type": "cell-based", "text": "as §5"}},
  "data": [
    {"compound": "Nc1ccc(-c2cccs2)cc1NC(=O)c1ccc2nc(N3CCNCC3)ccc2c1", "note": "[Compound 001, N-(2-amino-5-(thiophen-2-yl)phenyl)-2-(piperazin-1-yl)quinoline-6-carboxamide]", "values": [
      {"measurement": "IC50", "setting": "[1]", "value": 4, "unit": "nM"},
      {"measurement": "IC50", "setting": "[2]", "value": 15, "unit": "nM"},
      {"measurement": "IC50", "setting": "[3]", "value": 114, "unit": "nM"},
      {"measurement": "increase in the percentage of HbG relative to other beta-like globin transcripts", "setting": "[4]", "value": 3, "unit": "fold"},
      {"measurement": "HbG induction in cells positive for both CD71 and GlyA", "setting": "[4]; follow-up experiments, CD71+ GlyA+ cells", "value": "unable to induce HbG"},
      {"measurement": "decrease in cell viability", "setting": "[5]", "value": "approximately 3 fold"},
      {"measurement": "cells positive for the erythroid differentiation markers CD71 and glycophorinA", "setting": "[6]", "value": "reduction"},
      {"measurement": "probe sets down regulated", "setting": "[7]", "value": 681},
      {"measurement": "probe sets up regulated", "setting": "[7]", "value": 1294},
      {"measurement": "total probe set changes", "setting": "[8]", "value": 255},
      {"measurement": "decrease in Bcl11A mRNA", "setting": "[9]", "value": 2, "unit": "fold"},
      {"measurement": "increase in Gata2 mRNA", "setting": "[10]", "value": 8, "unit": "fold"},
      {"measurement": "increase in Klf2 mRNA", "setting": "[11]", "value": 2, "unit": "fold"},
      {"measurement": "decrease in Sox6 mRNA", "setting": "[12]", "value": 10, "unit": "fold"}
    ]},
    {"compound": "Nc1ccc(-c2ccncc2)cc1NC(=O)c1ccc2c(c1)cc(C1CC1)n2CCN1CCOCC1", "note": "[Compound 004, N-(2-amino-5-(pyridin-4-yl)phenyl)-2-cyclopropyl-1-(2-morpholinoethyl)-1H-indole-5-carboxamide]", "values": [
      {"measurement": "IC50", "setting": "[1]", "value": 27, "unit": "nM"},
      {"measurement": "IC50", "setting": "[2]", "value": 24, "unit": "nM"},
      {"measurement": "IC50", "setting": "[3]", "value": 247, "unit": "nM"},
      {"measurement": "increase in the percentage of HbG relative to other beta-like globin transcripts", "setting": "[4]", "value": 3, "unit": "fold"},
      {"measurement": "decrease in cell viability", "setting": "[5]", "value": 1.2, "unit": "fold"}
    ]}
  ]
}
